Assay results published in patent US8778985B2, “Inhibiting amyloid-beta peptide/rage interaction at the blood-brain barrier” (The University of Rochester, priority 2006, dated 2014).

Legend:
[1] = test system: RAGE-mediated transport of Aβ40 across the BBB; test: Arterial vascular brain perfusion: transport of 125I-Aβ40 across the BBB in APPsw+/− mice; format: in vivo; details: Mus musculus, read-out: inhibition of Aβ transport across the BBB
Description: The statistical significance of differences is shown. Data are mean±s.e.m., n=3-4 per group.
An arterial vascular brain perfusion technique (LaRue et al., 2004) was used to determine whether FPS2 blocks RAGE-mediated transport of circulating ^125I-labeled Aβ40 across the BBB in 4-6 month old APPsw^+/− mice. We and others have reported that expression of RAGE in brain microvessels in these mice is increased by about 5-fold compared to the littermate controls (Deane et al., 2003; Donahue et al., 2004).

APPsw+/− mice = test: Memory testing: novel object location and novel object recognition, chronic treatment of APPsw+/− mice; format: in vivo; details: 1 mg/kg per day i.p. for two months from 8 months of age
Method: (A) Percent increase in cerebral blood flow (CBF) in response to brain activation in mice treated with vehicle (open bar) or FPS2 (closed bar). (B-C) novel object location (B) and novel object recognition (C) expressed as percent exploratory preference in APPsw^+/− mice treated with vehicle (open bar) or FPS2 (closed bar). FPS2 (1 mg/kg per day) was intraperitoneally administered for two months beginning at the age of 8 months old mice. Values are means±s.e.m, n=5-6 per group.
APPsw^+/− mice were treated with FPS2 (1 mg/kg) or with vehicle daily by intraperitoneal injection for two months starting at 8 months old. At the end of the treatment period functional changes in cerebral blood flow (CBF) to brain activation, and memory tests were determined. Brain and plasma Aβ levels were also determined in FPS2 and vehicle treated mice. […]
Compounds were synthesized in parallel using semiautomated chemical reactions. […] Purity was assessed by reverse-phase gradient HPLC. […] After two months of treatment, (i) the cerebral blood flow response to brain activation (whisker stimulation) was measured and (ii) behavioral tests including operant learning, novel object location (NOL), and novel object recognition (NOR) were performed. After these functional tests, the mice were sacrificed and their brains analyzed for Aβ40, Aβ42, and amyloid levels. • CBF response to brain activation. […]

## CC(CC(=O)NCCCN(C(=O)c1cc([N+](=O)[O-])cc([N+](=O)[O-])c1)c1ccccc1)CC(C)(C)C (stereo not drawn) [FPS2, 3,5-dinitro-N-phenyl-N-[3-[(3,5,5-trimethyl-1-oxohexyl)amino]propyl]-(9Cl)-benzamide]
[1]
  inhibition at 4.8 µg/mL: 100%
APPsw+/− mice
  memory, novel object location: significantly increased
  memory, novel object recognition: significantly increased
